Experiments:
[1] = target: T1, Mineralocorticoid receptor (Homo sapiens, UniProt P08235); experiment: Binding affinity for mineralocorticoid receptor
T1 sequence (P08235 whole entry): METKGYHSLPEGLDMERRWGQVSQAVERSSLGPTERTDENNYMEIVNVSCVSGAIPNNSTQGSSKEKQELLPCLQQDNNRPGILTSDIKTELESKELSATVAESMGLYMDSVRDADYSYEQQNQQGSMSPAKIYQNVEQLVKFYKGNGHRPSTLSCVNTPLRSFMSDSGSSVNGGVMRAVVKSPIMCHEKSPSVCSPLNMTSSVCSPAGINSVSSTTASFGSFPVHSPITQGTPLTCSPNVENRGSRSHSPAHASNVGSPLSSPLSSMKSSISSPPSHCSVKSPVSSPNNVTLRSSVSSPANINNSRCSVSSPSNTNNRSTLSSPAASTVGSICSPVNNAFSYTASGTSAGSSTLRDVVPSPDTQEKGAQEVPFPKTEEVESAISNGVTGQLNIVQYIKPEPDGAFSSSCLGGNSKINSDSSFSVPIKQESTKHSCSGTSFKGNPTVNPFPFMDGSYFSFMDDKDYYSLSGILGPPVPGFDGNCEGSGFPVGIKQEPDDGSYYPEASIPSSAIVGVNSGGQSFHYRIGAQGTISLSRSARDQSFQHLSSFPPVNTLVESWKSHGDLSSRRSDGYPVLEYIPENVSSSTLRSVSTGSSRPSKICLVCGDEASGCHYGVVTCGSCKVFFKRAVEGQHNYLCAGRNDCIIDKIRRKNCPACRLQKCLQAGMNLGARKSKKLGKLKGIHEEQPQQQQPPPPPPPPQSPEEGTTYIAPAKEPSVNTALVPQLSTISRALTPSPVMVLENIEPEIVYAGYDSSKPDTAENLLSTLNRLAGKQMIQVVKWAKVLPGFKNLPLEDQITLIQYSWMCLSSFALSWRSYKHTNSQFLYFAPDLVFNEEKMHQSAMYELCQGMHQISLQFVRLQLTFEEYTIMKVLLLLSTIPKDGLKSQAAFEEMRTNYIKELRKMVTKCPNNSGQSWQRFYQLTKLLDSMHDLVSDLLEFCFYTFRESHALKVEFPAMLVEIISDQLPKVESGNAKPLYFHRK

[2] = target: Estrogen receptor (Homo sapiens, UniProt Q92731+P03372); experiment: Binding affinity for estrogen receptor; assay type: protein assay
[3] = species on record: Rattus norvegicus; experiment: Anti-asthmatic effect as eosinophil influx in rat lung model; assay type: functional
[4] = target: T2, Progesterone receptor (Homo sapiens, UniProt P06401); experiment: Binding affinity for progesterone receptor
T2 sequence (P06401 whole entry): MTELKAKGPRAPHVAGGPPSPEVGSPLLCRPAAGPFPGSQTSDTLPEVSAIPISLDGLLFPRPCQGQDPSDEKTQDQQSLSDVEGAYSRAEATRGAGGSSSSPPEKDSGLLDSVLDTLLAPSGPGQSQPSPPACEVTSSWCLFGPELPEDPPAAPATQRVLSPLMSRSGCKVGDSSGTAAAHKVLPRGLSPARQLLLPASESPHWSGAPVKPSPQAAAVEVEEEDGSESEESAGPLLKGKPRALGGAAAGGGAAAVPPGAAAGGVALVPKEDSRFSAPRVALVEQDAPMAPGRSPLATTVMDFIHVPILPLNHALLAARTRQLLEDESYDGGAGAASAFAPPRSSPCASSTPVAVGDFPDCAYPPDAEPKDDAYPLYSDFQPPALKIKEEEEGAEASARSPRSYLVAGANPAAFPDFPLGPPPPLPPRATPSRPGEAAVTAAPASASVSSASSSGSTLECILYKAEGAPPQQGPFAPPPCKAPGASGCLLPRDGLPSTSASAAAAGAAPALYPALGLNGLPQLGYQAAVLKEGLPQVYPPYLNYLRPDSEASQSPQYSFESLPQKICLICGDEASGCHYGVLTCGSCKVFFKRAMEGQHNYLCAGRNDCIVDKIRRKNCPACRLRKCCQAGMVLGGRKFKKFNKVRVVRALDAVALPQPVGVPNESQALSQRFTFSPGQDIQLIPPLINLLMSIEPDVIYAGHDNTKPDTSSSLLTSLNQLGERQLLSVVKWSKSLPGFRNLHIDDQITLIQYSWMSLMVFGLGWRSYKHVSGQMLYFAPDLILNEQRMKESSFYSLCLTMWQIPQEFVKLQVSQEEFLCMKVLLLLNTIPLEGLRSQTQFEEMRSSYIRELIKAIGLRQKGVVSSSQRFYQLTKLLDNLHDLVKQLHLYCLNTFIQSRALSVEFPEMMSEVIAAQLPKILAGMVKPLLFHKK

[5] = target: T3, Glucocorticoid receptor (Homo sapiens, UniProt P04150); experiment: Binding affinity for glucocorticoid receptor
T3 sequence (P04150 whole entry): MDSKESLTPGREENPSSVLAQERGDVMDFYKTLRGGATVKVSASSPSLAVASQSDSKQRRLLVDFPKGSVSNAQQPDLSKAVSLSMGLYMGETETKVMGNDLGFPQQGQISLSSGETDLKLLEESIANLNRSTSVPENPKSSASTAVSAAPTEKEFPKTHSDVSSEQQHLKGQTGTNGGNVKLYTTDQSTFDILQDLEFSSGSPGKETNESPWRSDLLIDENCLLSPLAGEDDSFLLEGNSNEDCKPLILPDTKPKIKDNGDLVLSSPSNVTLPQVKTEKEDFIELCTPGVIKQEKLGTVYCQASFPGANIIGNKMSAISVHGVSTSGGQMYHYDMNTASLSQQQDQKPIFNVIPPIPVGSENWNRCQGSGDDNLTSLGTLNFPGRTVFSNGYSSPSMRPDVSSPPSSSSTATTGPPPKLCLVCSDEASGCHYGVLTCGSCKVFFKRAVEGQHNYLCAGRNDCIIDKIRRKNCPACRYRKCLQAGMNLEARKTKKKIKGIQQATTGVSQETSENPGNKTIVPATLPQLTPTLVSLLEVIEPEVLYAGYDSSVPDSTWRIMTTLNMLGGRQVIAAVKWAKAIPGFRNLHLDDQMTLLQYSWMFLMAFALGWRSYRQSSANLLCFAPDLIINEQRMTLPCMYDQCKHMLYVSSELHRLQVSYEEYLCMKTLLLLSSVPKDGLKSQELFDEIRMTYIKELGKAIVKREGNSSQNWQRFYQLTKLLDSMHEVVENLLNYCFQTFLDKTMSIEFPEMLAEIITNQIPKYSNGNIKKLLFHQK

[6] = target: T3, Glucocorticoid receptor; experiment: Transcriptional repression of IL-1 stimulated IL-6 expression in native cells compared to Dexamethasone; assay type: functional, cell-based
[7] = target: T4, Androgen receptor (Homo sapiens, UniProt P10275); experiment: Binding affinity for androgen receptor
T4 sequence (P10275 whole entry): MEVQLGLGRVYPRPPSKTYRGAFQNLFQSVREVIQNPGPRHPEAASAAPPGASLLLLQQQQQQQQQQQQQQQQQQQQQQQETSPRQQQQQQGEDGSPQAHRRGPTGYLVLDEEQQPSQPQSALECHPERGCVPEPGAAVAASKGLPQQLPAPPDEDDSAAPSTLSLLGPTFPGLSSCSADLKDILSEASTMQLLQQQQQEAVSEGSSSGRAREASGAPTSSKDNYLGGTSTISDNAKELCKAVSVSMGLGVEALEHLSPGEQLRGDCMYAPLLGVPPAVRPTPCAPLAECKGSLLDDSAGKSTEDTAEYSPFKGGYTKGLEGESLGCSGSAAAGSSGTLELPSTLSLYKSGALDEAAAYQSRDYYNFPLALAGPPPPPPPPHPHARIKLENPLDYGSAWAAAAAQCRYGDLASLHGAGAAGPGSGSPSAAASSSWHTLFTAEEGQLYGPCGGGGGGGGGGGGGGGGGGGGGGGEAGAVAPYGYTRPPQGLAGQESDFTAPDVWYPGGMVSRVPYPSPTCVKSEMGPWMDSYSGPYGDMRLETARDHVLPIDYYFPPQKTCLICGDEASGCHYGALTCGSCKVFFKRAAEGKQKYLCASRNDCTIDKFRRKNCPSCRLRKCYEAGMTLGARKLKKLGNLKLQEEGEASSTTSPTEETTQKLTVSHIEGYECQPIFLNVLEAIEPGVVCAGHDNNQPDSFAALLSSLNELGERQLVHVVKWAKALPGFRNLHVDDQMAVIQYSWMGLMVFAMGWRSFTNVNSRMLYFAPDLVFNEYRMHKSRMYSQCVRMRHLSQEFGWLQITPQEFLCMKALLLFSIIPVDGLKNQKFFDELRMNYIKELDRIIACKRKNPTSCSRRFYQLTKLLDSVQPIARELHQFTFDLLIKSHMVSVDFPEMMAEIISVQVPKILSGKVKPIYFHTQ

[8] = target: T3, Glucocorticoid receptor; experiment: Repression activity of GR ligand with interleukin-6 receptor in native cell assay using Dexamethasone was determined as maximal potency; assay type: functional
[9] = target: T3, Glucocorticoid receptor; experiment: Glucocorticoid-induced aromatase activity in human skin fibroblasts; assay type: functional
[10] = target: T3, Glucocorticoid receptor; experiment: Transcriptional repression activity in HEP G2 cells expressing glucocorticoid receptor compared to Dexamethasone; assay type: functional, cell-based, HepG2
[11] = target: T3, Glucocorticoid receptor; experiment: Transcriptional activation in CV-1 cells expressing glucocorticoid receptor; assay type: functional, cell-based
[12] = target: T3, Glucocorticoid receptor; experiment: Displacement of [3H]- Dexamethasone from glucocorticoid receptor

| Structure (SMILES) | Ki [1] | Ki [2] | Ki [4] | Ki [5] | Ki [7] | IC50 [8] | IC50 [9] | IC50 [10] | IC50 [11] | also measured |
| --- | --- | --- | --- | --- | --- | --- | --- | --- | --- | --- |
| C[C@]12C=CC(=O)C=C1CC[C@@H]1[C@@H]2[C@@H](O)C[C@@]2(C)[C@H]1CC[C@]2(O)C(=O)CO [PREDNISOLONE] | 37 nM | > 1000 nM | – | – | – | – | – | – | – | ED50 [3]: 1.2 mg/kg |
| COc1cccc2c1-c1ccc3c(c1C(c1ccccc1)O2)C(C)=CC(C)(C)N3 (single isomer, unassigned; (-)) | – | – | > 5000 nM | 2.1 nM | – | – | – | – | – | IC50 [6]: 30 nM |
| COc1cccc2c1-c1ccc3c(c1C(c1ccccc1)O2)C(C)=CC(C)(C)N3 (stereo in doubt; (+)19) | > 5000 nM | – | > 5000 nM | 240 nM | > 5000 nM | – | – | – | – | – |
| COc1cccc2c1-c1ccc3c(c1C(c1cccc(C(F)(F)F)c1)O2)C(C)=CC(C)(C)N3 (stereo unspecified) | 493 nM | > 1000 nM | – | 11 nM | 3360 nM | 32 nM | 105 nM | 57 nM | 44 nM | – |
| COc1cccc2c1-c1ccc3c(c1C(c1cccc(OC(=O)N(C)C)c1)O2)C(C)=CC(C)(C)N3 (stereo unspecified) | 3910 nM | > 1000 nM | > 5000 nM | – | 3070 nM | 26 nM | 216 nM | 6 nM | 12 nM | Ki [12]: 2.4 nM |
| COc1cccc2c1-c1ccc3c(c1C(c1ccccc1)O2)C(C)=CC(C)(C)N3 (stereo in doubt; 10) | 1680 nM | > 1000 nM | > 5000 nM | 4.7 nM | 2660 nM | 51 nM | 164 nM | 123 nM | 300 nM | – |
| CC1=CC(C)(C)Nc2ccc3c(c21)C(c1ccccc1)Oc1ccc(Cl)cc1-3 (stereo unspecified) | 1100 nM | > 1000 nM | 53 nM | 9.3 nM | 1400 nM | – | – | – | – | – |
| COc1ccc2c(c1)OC(c1ccccc1)c1c-2ccc2c1C(C)=CC(C)(C)N2 (stereo unspecified) | – | – | > 5000 nM | 1800 nM | – | – | – | – | – | – |
| COc1ccc2c(c1)-c1ccc3c(c1C(c1ccccc1)O2)C(C)=CC(C)(C)N3 (stereo unspecified) | – | – | 390 nM | 18 nM | – | – | – | – | – | – |
| COc1cccc2c1-c1ccc3c(c1C(c1cc(Cl)cc(Cl)c1)O2)C(C)=CC(C)(C)N3 (stereo in doubt; (-)22) | – | – | 1560 nM | – | – | – | – | – | – | – |
| COCOc1cccc(C2Oc3cccc(OC)c3-c3ccc4c(c32)C(C)=CC(C)(C)N4)c1 (stereo unspecified) | – | – | – | – | – | 49 nM | 131 nM | 23 nM | 28 nM | – |
| COc1cccc2c1-c1ccc3c(c1C(c1cc(C)cc(C)c1)O2)C(C)=CC(C)(C)N3 (stereo unspecified) | – | – | – | – | – | 9.2 nM | 146 nM | 18 nM | 24 nM | – |
| COc1cccc2c1-c1ccc3c(c1C(c1cc(F)cc(F)c1)O2)C(C)=CC(C)(C)N3 (stereo unspecified) | – | – | – | – | – | 11 nM | 56 nM | 9 nM | 10 nM | – |
| COc1cccc2c1-c1ccc3c(c1C(c1cc(C)cc(Br)c1)O2)C(C)=CC(C)(C)N3 (stereo unspecified) | – | – | – | – | – | 12 nM | 314 nM | 18 nM | 29 nM | – |
| COc1cccc2c1-c1ccc3c(c1C(c1cc(Cl)cc(Cl)c1)O2)C(C)=CC(C)(C)N3 (stereo in doubt; 17) | – | – | > 5000 nM | – | – | – | – | – | – | – |
| COc1cccc2c1-c1ccc3c(c1C(c1cc(Cl)cc(Cl)c1)O2)C(C)=CC(C)(C)N3 (single isomer, unassigned; (+)) | > 5000 nM | – | > 5000 nM | – | > 5000 nM | – | – | – | – | – |

Source: ChEMBL document CHEMBL1134574, “Synthesis and characterization of non-steroidal ligands for the glucocorticoid receptor: selective quinoline derivatives with prednisolone-equivalent functional activity” (J Med Chem, 2001)
